How the values were obtained:
CML CD34+ cells [1] = experiment: Proliferation (cell doubling time) and apoptosis (Annexin V/7-AAD) of primary CML CD34+ cells; settings: imatinib 2 μM
phospho-AMPK = experiment: Western blot of AMPK and phospho-AMPK in CD34+ CML cells; format: cell-based, human; settings: imatinib-treated patient samples, 24 hours
Method: Cells were lysed in RIPA buffer containing mini-Complete protease inhibitor cocktail and phosphatase inhibitors (both Roche). Total protein concentration was quantified using a Pierce BCA kit (Thermo Fisher Scientific: 23227). Equal amounts of protein (5-7.5 μg) were heated at 95° C. for 5 min and separated (120V) in 4-12% gels (Novex) for SDS-PAGE. Proteins were transferred onto PDVF membranes (Thermo Fisher Scientific: 21882) then blocked in 2% BSA (in Tris-buffered saline, 0.01% Tween (TBS-T)) for one hour. Next, membranes were incubated overnight at 4° C. with the primary antibodies. The membranes were rinsed three times with TBS-T, then incubated with secondary HRP-linked antibodies (1:10,000) for 1 hour at room temperature. The SuperSignal West Femto Maxi detection system was used (Thermo Fisher Scientific: 34095) and imaging was carried out using a LI-COR Odyssey Fc gel-doc system.

K562 cells = experiment: Viability (Annexin V/7AAD) and CFC assays of vector control versus PC knockout K562 cells; format: cell-based, human; settings: 72 hours; 600 nm imatinib or 100 nm omacetaxine
Method: (a) Western blot of PC and loading control (tubulin) from vector control or PC knockout K562 cells. (b) Proliferation of K562 cells from A. Shown is average and SEM from 3 independent experiments. (c) Fractional labelling from ^13C6 glucose into indicated metabolites of PC knockout cells are shown (n=3) after 24 hours. Plots were generated using Autoplotter, average and SD are plotted. Statistical analyses were conducted on the m+5 fraction. An ordinary one-way ANOVA was used with Dunnett's test used to correct for multiple comparisons. (d) Cells viability was measured using Annexin V and 7AAD. Cells were either left untreated (UT) or exposed for 72 hours to 600 nm imatinib or 100 nm omacetaxine (OMA). Shown is average and SEM from 4 independent experiments. An ordinary one-way ANOVA was used with Dunnett's test used to correct for multiple comparisons. (e) Colony Forming Cell (CFC) potential of control and […] cells. Cells were either left untreated (UT) or exposed for 72 hours to 600 nm imatinib. Shown is average and SEM from 4 independent experiments. An ordinary one-way ANOVA was used with Dunnett's test used to correct for multiple comparisons. […]

CML CD34+ cells [2] = experiment: Mitochondrial respiratory capacity (FCCP-induced oxygen consumption rate); format: cell-based, human; settings: imatinib-treated samples
K562 CML cell line = experiment: 13C6 glucose tracing in K562 CML cell line; format: cell-based, human; settings: K562, several concentrations
Method: For conjugation of palmitate, a 20 mM stock was made in 100% EtOH. This was incubated on a shaking heater, 60° C. until the solution clarified. The palmitate was then added to 10% BSA (ultra-fatty acid free in EBSS, Roche, 03117057001) to give a palmitate:BSA ratio of 1:3 BSA. This solution was left for 15 min in water bath (37° C.), and then added to final concentration in complete medium. For cell line experiments, the medium was RPMI with 10% dialysed FBS and 1% penicillin/streptomycin. For tracing experiments 11 mM ^13C6 glucose was added to glucose-free RPMI.
Biological and technical replicates were processed through Autoplotter (56) and natural abundance was corrected for. Fraction of enrichment was calculated as m+2 and above. For CML samples treated with or without imatinib, multiple paired T-tests were conducted on Log 10 transformed values in Graphpad Prism. The correction for multiple comparisons was the two-stage step-up method of Benjamini, Krieger and Yekutieli with an FDR (Q) value of 10%. For volcano plots Log 10 FC vs Log 10 (q value) are plotted with q values>5% in red and >10% in blue. For normal vs CML comparisons, the process was the same with the exception that unpaired t-tests were used. For PC activity in normal vs CML, this is denoted by fraction m+3. For imatinib vs untreated we look at relative activity to PDH. IE., the m+3/m+2 ratio and conducted multiple t-tests with correction for multiple comparisons being the two-stage step-up method of Benjamini, Krieger and Yekutieli with an FDR (Q) value of 10%. To examine contribution to carbon pool we corrected contribution of each isotopologue by the number of carbons it contributes to a given metabolite, i.e., for glutamine contribution from m+5 is greater than m+3. Note that for cell line experiments standard deviation is shown.

[3] = Body weight of xenografted NRG-W41 mice during treatment; settings: 4 weeks
Method: For in vivo engraftment, 1 million CML CD34^+ cells, were transplanted via tail vein into sublethally irradiated (2.5Gy) female NRG-W41 (NOD.Cg-Rag1^tm1MomKit^W-41JIl2rg^tm1Wjl)) mice aged 8-10 weeks. Mice were housed under conditions of alternating 12 hours light and 12 hours darkness, at 20-24° C., 45-65% humidity, with feeding (LBS biotech: SDS Cat #SDS801730) and water ad libitum.
For treatment with imatinib plus MSDC-0160, eight weeks following transplant, drug treatment was started with both imatinib (LC Laboratories, Cat #1-5508) dosed at 100 mg/kg/day (50 mg per kg body weight BID) oral gavage and MSDC-0160 (30 mg/kg; oral gavage once daily). Treatment was given for 4 weeks.

SMILES	cell proliferation (cell doubling time) (CML CD34+ cells [1]; primary CML CD34+ cells in Plasmax, p-value=0.0659)	level of apoptosis (CML CD34+ cells [1]; primary CML CD34+ cells, p-value=0.081)	AMPK and phospho-AMPK protein levels (phospho-AMPK)	sensitisation of K562 to the drug by PC ablation, viability and CFC assays (K562 cells)	mitochondrial respiratory capacity (FCCP-induced oxygen consumption rate) (CML CD34+ cells [2])	labelled fractions in alpha-ketoglutarate (AKG) and AKG-derived glutamate (K562 CML cell line)	glucose contribution to fraction of labelling (K562 CML cell line; data not shown)	tolerability (body weight throughout the study), single agent arms ([3]; imatinib 50 mg/kg BID or MSDC-0160 30 mg/kg/day, oral gavage)	tolerability (body weight throughout the study), combination arm ([3]; imatinib 50 mg/kg BID plus MSDC-0160 30 mg/kg/day)
Cc1ccc(NC(=O)c2ccc(CN3CCN(C)CC3)cc2)cc1Nc1nccc(-c2cccnc2)n1 [imatinib]	inhibited cell proliferation	modest, sample-dependent increase in the level of apoptosis	variable depending on patient sample	sensitised	reduced	–	–	–	–
CCc1ccc(C(=O)COc2ccc(CC3SC(=O)NC3=O)cc2)nc1 (stereo not drawn) [MSDC-0160]	–	–	–	–	–	reducing levels of all labelled fractions in these metabolites in a concentration-dependent manner	concentration-dependent reduction	well tolerated	well tolerated
